Experiments:
Salmonella typhi = test: Kirby-Bauer disc diffusion; assay type: cell-based; conditions: reference antibiotic disc (5 μg)
[1] = system: Candida albicans ATCC10231; test: Kirby-Bauer disc diffusion; assay type: cell-based; conditions: reference antibiotic disc (100unit)
From the text: (§1) Experimental procedures include the following steps: • 1.

[2] = system: Cryptococcus neoformans ATCC90112; test: Kirby-Bauer disc diffusion; assay type: cell-based; conditions: reference antibiotic disc (100unit)
From the text: as §1

[3] = system: alloxan induced-diabetic rats; test: Antihyperglycemic activity: fall in fasting blood glucose in alloxan induced-diabetic rats; assay type: in vivo, rat

## O=C(O)c1cn(C2CC2)c2cc(N3CCNCC3)c(F)cc2c1=O [Cipro, ciprofloxacin]
Salmonella typhi
  Zone of inhibition, Sal. typhi: 35 mm

## C[C@@H]1[C@H](O)[C@@H](C)/C=C/C=C/CC/C=C/C=C/C=C/C=C/C(O[C@H]2O[C@H](C)[C@@H](O)[C@H](N)[C@@H]2O)CC2O[C@](O)(CC(O)C(O)CCC(O)CC(O)CC(O)CC(=O)O[C@H]1C)CC(O)C2C(=O)O (stereo partly drawn) [Nystatin, nystatin]
[1]
  Zone of inhibition, C. albicans: 10 mm
[2]
  Zone of inhibition, C. neoformance: 9 mm

## insulin: insulin from bovine pancreas (≧27 units/mg)
[3]; all insulin-injected rats, after two hours of injection (p<0.001)
  FBG: sharp significant decrease
[3]; at either dose
  FBG difference between normal rats and treated diabetic rats: No significant difference
[3]; insulin 10 units/kg b.w, after 8 hours of treatment
  FBG: returned to the diabetic state
